In the experiment the target is T1, ClC-3 (long-ClC-3A) (Homo sapiens, UniProt P51790).
T1 sequence (P51790 1-818): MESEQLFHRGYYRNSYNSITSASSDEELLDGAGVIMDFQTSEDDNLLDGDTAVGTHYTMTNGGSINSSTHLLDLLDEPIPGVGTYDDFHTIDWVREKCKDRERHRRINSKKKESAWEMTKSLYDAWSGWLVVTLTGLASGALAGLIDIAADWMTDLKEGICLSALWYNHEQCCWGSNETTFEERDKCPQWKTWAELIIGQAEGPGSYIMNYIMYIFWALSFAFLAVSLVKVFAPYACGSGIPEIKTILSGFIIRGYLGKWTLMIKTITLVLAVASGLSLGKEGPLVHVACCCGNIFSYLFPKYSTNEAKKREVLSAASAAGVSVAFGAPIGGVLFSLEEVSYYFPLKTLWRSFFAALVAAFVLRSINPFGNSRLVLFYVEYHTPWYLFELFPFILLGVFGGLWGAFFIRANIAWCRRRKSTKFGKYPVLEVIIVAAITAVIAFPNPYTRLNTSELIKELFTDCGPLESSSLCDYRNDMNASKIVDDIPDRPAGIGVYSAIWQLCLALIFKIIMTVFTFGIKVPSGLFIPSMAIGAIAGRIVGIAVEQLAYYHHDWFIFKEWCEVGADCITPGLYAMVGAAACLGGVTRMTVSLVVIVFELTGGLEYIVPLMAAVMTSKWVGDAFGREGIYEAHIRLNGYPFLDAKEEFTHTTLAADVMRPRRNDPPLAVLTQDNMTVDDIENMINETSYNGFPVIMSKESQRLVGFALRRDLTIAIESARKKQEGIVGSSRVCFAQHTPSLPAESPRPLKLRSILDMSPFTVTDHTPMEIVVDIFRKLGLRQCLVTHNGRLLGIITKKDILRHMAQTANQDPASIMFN
The experiment is described as follows: whole-cell patch clamp, inhibitor in pipette. The class given is cell-based.

The text below walks through data of PMC2631652 (Current biology : CB, 2008).

A word on the IC50: it is the midpoint of a concentration-inhibition curve. The compound `O=P(O)(O)O[C@H]1[C@H](OP(=O)(O)O)[C@@H](OP(=O)(O)O)[C@@H](O)[C@@H](O)[C@@H]1OP(=O)(O)O` [Ins(3,4,5,6)P4] returned an IC50 of 4.6 µM.
